Assay results as given in PubChem BioAssay (NCI).
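Compound exposure: 48 hours, 5 concentrations, 96-well plates. GI50: concentration for 50% inhibition of growth. TGI: concentration producing complete growth inhibition.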

Experiments:
Test in all cases: DTP human tumour cell line panel, 48 h
SNB-19 CNS = test system: SNB-19 CNS
HL-60(TB) leukemia = test system: HL-60(TB) leukemia
OVCAR-8 ovarian = test system: OVCAR-8 ovarian
OVCAR-5 ovarian = test system: OVCAR-5 ovarian
MCF7 breast = test system: MCF7 breast
SR leukemia = test system: SR leukemia
HOP-92 NSCLC = test system: HOP-92 NSCLC
OVCAR-3 ovarian = test system: OVCAR-3 ovarian
T-47D breast = test system: T-47D breast
SK-MEL-5 melanoma = test system: SK-MEL-5 melanoma
SK-MEL-2 melanoma = test system: SK-MEL-2 melanoma
SF-539 CNS = test system: SF-539 CNS
NCI-H226 lung = test system: NCI-H226 lung
MOLT-4 leukemia = test system: MOLT-4 leukemia
MALME-3M melanoma = test system: MALME-3M melanoma
CAKI-1 renal = test system: CAKI-1 renal
RPMI-8226 leukemia = test system: RPMI-8226 leukemia
TK-10 renal = test system: TK-10 renal
UO-31 renal = test system: UO-31 renal
U251 CNS = test system: U251 CNS
SF-268 CNS = test system: SF-268 CNS
786-0 renal = test system: 786-0 renal
PC-3 prostate = test system: PC-3 prostate
EKVX NSCLC = test system: EKVX NSCLC
IGROV1 ovarian = test system: IGROV1 ovarian
K-562 leukemia = test system: K-562 leukemia
NCI-H23 lung = test system: NCI-H23 lung
SK-OV-3 ovarian = test system: SK-OV-3 ovarian
M14 melanoma = test system: M14 melanoma
A549 NSCLC = test system: A549 NSCLC
RXF 393 renal = test system: RXF 393 renal
HOP-62 NSCLC = test system: HOP-62 NSCLC
ACHN renal = test system: ACHN renal
NCI-H460 lung = test system: NCI-H460 lung
NCI-H522 lung = test system: NCI-H522 lung
UACC-257 melanoma = test system: UACC-257 melanoma
HCC-2998 colon = test system: HCC-2998 colon
HCT-15 colon = test system: HCT-15 colon
LOX IMVI melanoma = test system: LOX IMVI melanoma
SW-620 colon = test system: SW-620 colon
SNB-75 CNS = test system: SNB-75 CNS
KM12 colon = test system: KM12 colon
HCT-116 colon = test system: HCT-116 colon
NCI/ADR-RES ovarian = test system: NCI/ADR-RES ovarian
HS 578T breast = test system: HS 578T breast
DU-145 prostate = test system: DU-145 prostate
UACC-62 melanoma = test system: UACC-62 melanoma
MDA-MB-435 = test system: MDA-MB-435
BT-549 breast = test system: BT-549 breast
OVCAR-4 ovarian = test system: OVCAR-4 ovarian
SF-295 CNS = test system: SF-295 CNS
MDA-MB-468 breast = test system: MDA-MB-468 breast
A498 renal = test system: A498 renal
COLO 205 colon = test system: COLO 205 colon
SN12C renal = test system: SN12C renal
MDA-MB-231 breast = test system: MDA-MB-231 breast
CCRF-CEM leukemia = test system: CCRF-CEM leukemia
SK-MEL-28 melanoma = test system: SK-MEL-28 melanoma
HT29 colon = test system: HT29 colon

## N#C/C(=C\c1ccc(N(c2ccccc2)c2ccccc2)cc1)C(N)=O
SNB-19 CNS
  GI50: 37.3 µM
  TGI: > 100 µM
HL-60(TB) leukemia
  GI50: > 100 µM
  TGI: > 100 µM
OVCAR-8 ovarian
  GI50: 35.1 µM
  TGI: > 100 µM
OVCAR-5 ovarian
  GI50: 1.12 µM
  TGI: 3.07 µM
MCF7 breast
  GI50: 0.661 µM
  TGI: > 100 µM
SR leukemia
  GI50: > 100 µM
  TGI: > 100 µM
HOP-92 NSCLC
  GI50: 29.7 µM
  TGI: > 92.4 µM
OVCAR-3 ovarian
  GI50: 4.6 µM
  TGI: > 95.9 µM
T-47D breast
  GI50: 1.06 µM
  TGI: 5.27 µM
SK-MEL-5 melanoma
  GI50: 11 µM
  TGI: > 100 µM
SK-MEL-2 melanoma
  GI50: 29 µM
  TGI: > 100 µM
SF-539 CNS
  GI50: 68 µM
  TGI: > 100 µM
NCI-H226 lung
  GI50: 0.24 µM
  TGI: 0.989 µM
MOLT-4 leukemia
  GI50: > 100 µM
  TGI: > 100 µM
MALME-3M melanoma
  GI50: 42.9 µM
  TGI: > 100 µM
CAKI-1 renal
  GI50: 0.308 µM
  TGI: 2.48 µM
RPMI-8226 leukemia
  GI50: 12.4 µM
  TGI: > 100 µM
TK-10 renal
  GI50: 0.797 µM
  TGI: 3.92 µM
UO-31 renal
  GI50: 25.7 µM
  TGI: > 100 µM
U251 CNS
  GI50: 2.99 µM
  TGI: > 100 µM
SF-268 CNS
  GI50: 67.3 µM
  TGI: > 100 µM
786-0 renal
  GI50: 18 µM
  TGI: > 92.1 µM
PC-3 prostate
  GI50: > 69.8 µM
  TGI: > 100 µM
EKVX NSCLC
  GI50: > 100 µM
  TGI: > 100 µM
IGROV1 ovarian
  GI50: 0.946 µM
  TGI: 4.64 µM
K-562 leukemia
  GI50: 43.9 µM
  TGI: > 100 µM
NCI-H23 lung
  GI50: 15.3 µM
  TGI: > 100 µM
SK-OV-3 ovarian
  GI50: 25.3 µM
  TGI: > 100 µM
M14 melanoma
  GI50: > 100 µM
  TGI: > 100 µM
A549 NSCLC
  GI50: 22.7 µM
  TGI: > 100 µM
RXF 393 renal
  GI50: 1.33 µM
  TGI: 20.3 µM
HOP-62 NSCLC
  GI50: 3.9 µM
  TGI: 31.5 µM
ACHN renal
  GI50: 64.4 µM
  TGI: > 100 µM
NCI-H460 lung
  GI50: 1.74 µM
  TGI: > 67.2 µM
NCI-H522 lung
  GI50: > 78.9 µM
  TGI: > 100 µM
UACC-257 melanoma
  GI50: 0.839 µM
  TGI: 3.53 µM
HCC-2998 colon
  GI50: > 64.1 µM
  TGI: > 100 µM
HCT-15 colon
  GI50: > 100 µM
  TGI: > 100 µM
LOX IMVI melanoma
  GI50: > 89 µM
  TGI: > 100 µM
SW-620 colon
  GI50: 8.69 µM
  TGI: > 100 µM
SNB-75 CNS
  GI50: 19.8 µM
  TGI: > 93.9 µM
KM12 colon
  GI50: > 100 µM
  TGI: > 100 µM
HCT-116 colon
  GI50: 0.758 µM
  TGI: > 100 µM
NCI/ADR-RES ovarian
  GI50: 21.6 µM
  TGI: > 100 µM
HS 578T breast
  GI50: 38.4 µM
  TGI: > 100 µM
DU-145 prostate
  GI50: > 100 µM
  TGI: > 100 µM
UACC-62 melanoma
  GI50: 0.308 µM
  TGI: 1.37 µM
MDA-MB-435
  GI50: > 100 µM
  TGI: > 100 µM
BT-549 breast
  GI50: > 100 µM
  TGI: > 100 µM
OVCAR-4 ovarian
  GI50: 2.28 µM
  TGI: 16.1 µM
SF-295 CNS
  GI50: 7.24 µM
  TGI: > 100 µM
MDA-MB-468 breast
  GI50: 0.145 µM
  TGI: 0.351 µM
A498 renal
  GI50: 1.11 µM
  TGI: 2.61 µM
COLO 205 colon
  GI50: 15.3 µM
  TGI: > 100 µM
SN12C renal
  GI50: > 77.1 µM
  TGI: > 100 µM
MDA-MB-231 breast
  GI50: > 72.5 µM
  TGI: > 100 µM
CCRF-CEM leukemia
  GI50: > 100 µM
  TGI: > 100 µM
SK-MEL-28 melanoma
  GI50: > 100 µM
  TGI: > 100 µM
HT29 colon
  GI50: 16.9 µM
  TGI: > 100 µM
